Experimental data: BindingDB's records for PubMed 31761384 (China Pharmaceutical University, 2020)
Bridge positions count the residues as written; N and C are the ends. Peptide text beside a SMILES is read from it.

Test: Inhibition of human PD-1 expressed in rat PBMCs/human PD-L1 expressed in MDA-MB-231 cells protein-protein interaction assessed as increase in PBMCs proliferation

EC50: 0.41 nM
Structure (SMILES): CC[C@H](C)[C@@H]1NC(=O)[C@H](CC(C)C)NC(=O)[C@H](Cc2ccccc2)NC(=O)CSC[C@@H](C(=O)NCC(N)=O)NC(=O)[C@H](CCCNC(=N)N)NC(=O)[C@H](Cc2ccccc2)NC(=O)[C@H](C(C)C)NC(=O)[C@H](CCCNC(=N)N)NC(=O)[C@H](CC(=O)O)NC(=O)[C@H](CCCNC(=N)N)NC(=O)[C@H]([C@@H](C)CC)NC(=O)[C@H](C(C)C)NC1=O ({CH2CO}-FLIVIRDRVFRCG-NH2; thioether N-12)
